Values of other authors, collected in patent publication US20130184354A1, “Silicone and Hylauronic Acid (HLA) Delivery Systems for Products by Sustainable Processes for Medical Uses Including Wound Management” (priority 2012, published 2013).

Experiments:
CB2 receptors = CB2 receptors (Homo sapiens, UniProt P34972)
[1] = compared with THC

Chain of CB2 receptors (P34972 whole entry): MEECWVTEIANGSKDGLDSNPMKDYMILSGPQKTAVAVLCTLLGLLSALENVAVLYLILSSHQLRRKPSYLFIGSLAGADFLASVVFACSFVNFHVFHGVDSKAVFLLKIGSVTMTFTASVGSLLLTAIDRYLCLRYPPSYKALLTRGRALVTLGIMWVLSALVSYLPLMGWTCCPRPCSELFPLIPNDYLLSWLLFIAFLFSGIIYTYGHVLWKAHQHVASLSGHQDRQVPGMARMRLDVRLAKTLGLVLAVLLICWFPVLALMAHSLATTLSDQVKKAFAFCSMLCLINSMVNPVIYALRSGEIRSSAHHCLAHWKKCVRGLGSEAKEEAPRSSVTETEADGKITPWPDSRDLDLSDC

SMILES	affinity for CB2 receptors (CB2 receptors)	potency relative to THC [1]
C=C(C)[C@@H]1CCC(C)=C[C@H]1c1c(O)cc(CCCCC)cc1O [Cannabidiol]	no affinity	–
CCCCCCC(C)(C)c1cc(O)c2c(c1)OC(C)(C)[C@@H]1CC=C(CO)C[C@@H]21 [HU-210]	–	about 100 times
